The source made the active and inactive calls. No rule for the calls is given here.
These compounds were tested against Glycogen synthase kinase-3 beta splice variant X1 (Bos taurus) (UniProt A0A059UE90) (assay: (§1) Inhibition of bovine cerebral TPK1 assessed as reduction in P-GS1 phosphorylation using [32gammaP]ATP incubated for 2 hrs by liquid scintillation counting method).

Structure (SMILES) | inhibition
COCCN(c1ccc([C@H]2CN(c3nc(-c4ccncc4F)cc(=O)n3C)CCO2)cc1)C1CCCCC1 | Active
Cn1c(N2CCO[C@@H](c3ccc(C(=O)NCc4ccccc4)cc3)C2)nc(-c2ccncc2F)cc1=O | Active
COC(C)(C)C(=O)N(C)c1ccc([C@H]2CN(c3nc(-c4ccncc4F)cc(=O)n3C)CCO2)cc1 | Active
CC(C)c1ccc([C@H]2CN(c3nc(-c4ccncc4F)cc(=O)n3C)CCO2)cc1 | Active
Cn1c(N2CCO[C@@H](c3ccc(NC(=O)C4(C)CC4)cc3)C2)nc(-c2ccncc2F)cc1=O | Active
CN(C)C1CCN(c2ccc([C@H]3CN(c4nc(-c5ccncc5F)cc(=O)n4C)CCO3)cc2)CC1 | Active
Cn1c(N2CCO[C@@H](c3ccc(NC4CCCCC4)cc3)C2)nc(-c2ccncc2F)cc1=O | Active
Cn1c(N2CCO[C@@H](c3ccc(N)c(F)c3)C2)nc(-c2ccncc2F)cc1=O | Active
CC(=O)OCCN1CCN(c2ccc([C@H]3CN(c4nc(-c5ccncc5F)cc(=O)n4C)CCN3)cc2)CC1 | Active
Cn1c(N2CCO[C@@H](c3ccc(-c4ncon4)cc3)C2)nc(-c2ccncc2F)cc1=O | Active
Cn1c(N2CCO[C@@H](c3ccc(OC[C@@H](O)CN4CCCC4)cc3)C2)nc(-c2ccncc2F)cc1=O | Active
COc1ccc([C@H]2CN(c3nc(-c4ccncc4F)cc(=O)n3C)CCO2)cc1 | Active
Cn1c(N2CCOC(c3cccc(-c4nccs4)c3)C2)nc(-c2ccncc2F)cc1=O (stereo not drawn) | Active
CN(C)C(=O)c1ccc([C@H]2CN(c3nc(-c4ccncc4F)cc(=O)n3C)CCO2)cc1 | Active
Cn1c(N2CCO[C@@H](c3ccc(NC(=O)c4ccccc4)cc3)C2)nc(-c2ccncc2F)cc1=O | Active
Cn1c(N2CCO[C@@H](c3ccc(NS(=O)(=O)Cc4ccccc4)cc3)C2)nc(-c2ccncc2F)cc1=O | Active
CC1CC1C(=O)Nc1ccc([C@H]2CN(c3nc(-c4ccncc4F)cc(=O)n3C)CCO2)cc1 (stereo partly drawn) | Active
Cn1c(N2CCN[C@@H](c3ccc(N4CCOCC4)cc3)C2)nc(-c2ccncc2F)cc1=O | Active
Cn1c(N2CCO[C@@H](c3ccc(NC(=O)N4CCOCC4)cc3)C2)nc(-c2ccncc2F)cc1=O | Active
Cn1c(N2CCO[C@@H](c3ccc(N4CCC(N5CCCCC5)CC4)cc3)C2)nc(-c2ccncc2F)cc1=O | Active
Cn1c(N2CCN[C@H](c3ccc(C#N)cc3)C2)nc(-c2ccncc2F)cc1=O | Active
CN1CCN(CCCOc2ccc([C@H]3CN(c4nc(-c5ccncc5F)cc(=O)n4C)CCO3)cc2)CC1 | Active

Structure (SMILES) | inhibition
Cn1c(N2CCO[C@@H](c3ccc(NC(=O)C4CCCC4)cc3)C2)nc(-c2ccncc2F)cc1=O | Active
Cn1c(N2CCO[C@@H](c3c(F)cccc3Cl)C2)nc(-c2ccncc2F)c(F)c1=O | Active
Cn1c(N2CCO[C@@H](c3ccc(OCCN4CCNCC4)cc3)C2)nc(-c2ccncc2F)cc1=O | Active
COc1ccc([C@H]2CN(c3nc(-c4ccncc4F)c(Br)c(=O)n3C)CCO2)cc1 | Active
Cn1c(N2CCO[C@@H](c3ccc(N(C4CCCCC4)S(=O)(=O)c4ccccc4)cc3)C2)nc(-c2ccncc2F)cc1=O | Active
Cn1c(N2CCO[C@@H](c3ccc(OC(F)(F)F)cc3)C2)nc(-c2ccncc2F)cc1=O | Active
C[C@@H]1CN(c2ccc([C@H]3CN(c4nc(-c5ccncc5F)cc(=O)n4C)CCO3)cc2)C[C@H](C)N1 | Active
Cc1nc(-c2ccc(C3CN(c4nc(-c5ccncc5F)cc(=O)n4C)CCN3)cc2)no1 (stereo not drawn) | Active
Cn1c(N2CCO[C@@H](c3ccc(N4CCN(CCO)CC4)cc3)C2)nc(-c2ccncc2F)cc1=O | Active
CCN(CC)CCCOc1ccc([C@H]2CN(c3nc(-c4ccncc4F)cc(=O)n3C)CCO2)cc1 | Active
Cn1c(N2CCN[C@@H](c3ccc(-c4ccc(C(F)(F)F)cc4)cc3)C2)nc(-c2ccncc2F)cc1=O | Active
Cn1c(N2CCO[C@@H](c3ccc(Nc4cccnc4)cc3)C2)nc(-c2ccncc2F)cc1=O | Active
CN(C)c1ccc([C@H]2CN(c3nc(-c4ccncc4F)cc(=O)n3C)CCO2)cc1 | Active
CN1CCN(CC(=O)Nc2ccc([C@H]3CN(c4nc(-c5ccncc5F)cc(=O)n4C)CCO3)cc2)CC1 | Active
COc1cc(N(C)C)ccc1[C@H]1CN(c2nc(-c3ccncc3F)cc(=O)n2C)CCO1 | Active
Cn1c(N2CCO[C@@H](c3ccc(N4CCCCC4=O)cc3)C2)nc(-c2ccncc2F)cc1=O | Active
Cn1c(N2CCN[C@@H](c3ccc(N4CC[C@H](C#N)C4)cc3)C2)nc(-c2ccncc2F)cc1=O | Active
Cn1c(N2CCO[C@@H](c3ccc(N(C4CCCCC4)S(C)(=O)=O)cc3)C2)nc(-c2ccncc2F)cc1=O | Active
Cn1c(N2CCO[C@@H](c3ccccc3)C2)nc(-c2ccncc2F)cc1=O | Active
Cn1c(N2CCOC(c3ccc4c(c3)CC(=O)N4)C2)nc(-c2ccncc2F)cc1=O (racemic) | Active
Cn1c(N2CCN[C@@H](c3ccc(N4CCCC4)cc3)C2)nc(-c2ccncc2F)cc1=O | Active

Each compound was assayed against Glycogen synthase kinase-3 beta splice variant X1 (Bos taurus, UniProt A0A059UE90) (assay: as §1).

Structure (SMILES) | IC50
Cn1c(N2CCO[C@@H](c3c(F)cccc3Cl)C2)nc(-c2ccncc2F)cc1=O | 1.4 nM
CN(C)CC(=O)Nc1ccc([C@H]2CN(c3nc(-c4ccncc4F)cc(=O)n3C)CCO2)cc1 | 0.27 nM
CC(=O)Nc1cccc([C@H]2CN(c3nc(-c4ccncc4F)cc(=O)n3C)CCO2)c1 | 4.1 nM
Cn1c(N2CCN[C@@H](c3ccc(N4CCCCC4)cc3)C2)nc(-c2ccncc2F)cc1=O | 3.7 nM
Cn1c(N2CCN[C@@H](c3ccc(N4CCN(c5ccccc5)CC4)cc3)C2)nc(-c2ccncc2F)cc1=O | 0.53 nM
COc1ccc(NC(C)=O)cc1[C@H]1CN(c2nc(-c3ccncc3F)cc(=O)n2C)CCO1 | 0.48 nM
Cn1c(N2CCO[C@@H](c3ccc(NC(=O)C4CCCCC4)cc3)C2)nc(-c2ccncc2F)cc1=O | 2.2 nM
Cn1c(N2CCO[C@@H](c3ccc(N[C@@H]4CCOC4)cc3)C2)nc(-c2ccncc2F)cc1=O | 2.7 nM
COC(=O)Nc1ccc([C@H]2CN(c3nc(-c4ccncc4F)cc(=O)n3C)CCO2)cc1 | 1.2 nM
Cn1c(N2CCOC(c3ccc4c(c3)CCC(=O)N4)C2)nc(-c2ccncc2F)cc1=O (racemic) | 1.2 nM
Cc1cc(C2CN(c3nc(-c4ccncc4F)cc(=O)n3C)CCO2)ccc1Br (stereo not drawn) | 0.51 nM
CN(C)C(=O)Nc1ccc([C@H]2CN(c3nc(-c4ccncc4F)cc(=O)n3C)CCO2)cc1 | 11 nM
Cn1c(N2CCO[C@@H](c3ccc(N4CCC(N5CCCC5)CC4)cc3)C2)nc(-c2ccncc2F)cc1=O | 1.7 nM
Cn1c(N2CCN[C@@H](c3ccc(-c4ncon4)cc3)C2)nc(-c2ccncc2F)cc1=O | 4.8 nM
Cn1c(N2CCO[C@@H](c3ccc(C(=O)N4CCOCC4)cc3)C2)nc(-c2ccncc2F)cc1=O | 7.4 nM
COc1ccc(-c2ccc([C@H]3CN(c4nc(-c5ccncc5F)cc(=O)n4C)CCN3)cc2)cc1 | 0.73 nM
CC(=O)N1CCC(Oc2ccc([C@H]3CN(c4nc(-c5ccncc5F)cc(=O)n4C)CCO3)cc2)CC1 | 6.4 nM
Cn1c(N2CCO[C@@H](c3ccc(N)cc3)C2)nc(-c2ccncc2F)cc1=O | 2.9 nM
CN(c1ccc([C@H]2CN(c3nc(-c4ccncc4F)cc(=O)n3C)CCO2)cc1)c1ccccn1 | 5.4 nM
Cn1c(N2CCO[C@@H](c3ccc(OCCN4CCOCC4)cc3)C2)nc(-c2ccncc2F)cc1=O | 1.1 nM
Cn1c(N2CCO[C@@H](c3ccc(NC(=O)C(C)(C)C)cc3)C2)nc(-c2ccncc2F)cc1=O | 4.2 nM
CN(c1ccc([C@H]2CN(c3nc(-c4ccncc4F)cc(=O)n3C)CCO2)cc1)[C@@H]1CCOC1 | 3.9 nM
Cc1nc(-c2ccc([C@H]3CN(c4nc(-c5ccncc5F)cc(=O)n4C)CCN3)cc2)no1 | 2.9 nM
Cn1c(N2CCO[C@@H](c3cc4ccccc4o3)C2)nc(-c2ccncc2F)cc1=O | 7.9 nM
CC(C)Oc1ccc(-c2ccc([C@H]3CN(c4nc(-c5ccncc5F)cc(=O)n4C)CCN3)cc2)cc1 | 1.2 nM

From ChEMBL document CHEMBL3727346, “6-(pyridinyl)-4-pyrimidone derivates as tau protein kinase 1 inhibitors” (2011)
